Assay results published in patent publication US7981919B2, “Tricyclic heteroaryl piperazines, pyrrolidines and azetidines as serotonin receptor modulators” (Athersys, Inc., priority 2004, dated 2011).
Where two headings read alike, the source gives them in different places.

Molecular target: T1, human 5HT2c receptor (VNV Isoform) (Homo sapiens, UniProt P28335, I156V/I160V, form not given)
T1 sequence (P28335 1-458 I156V/N158S/I160V): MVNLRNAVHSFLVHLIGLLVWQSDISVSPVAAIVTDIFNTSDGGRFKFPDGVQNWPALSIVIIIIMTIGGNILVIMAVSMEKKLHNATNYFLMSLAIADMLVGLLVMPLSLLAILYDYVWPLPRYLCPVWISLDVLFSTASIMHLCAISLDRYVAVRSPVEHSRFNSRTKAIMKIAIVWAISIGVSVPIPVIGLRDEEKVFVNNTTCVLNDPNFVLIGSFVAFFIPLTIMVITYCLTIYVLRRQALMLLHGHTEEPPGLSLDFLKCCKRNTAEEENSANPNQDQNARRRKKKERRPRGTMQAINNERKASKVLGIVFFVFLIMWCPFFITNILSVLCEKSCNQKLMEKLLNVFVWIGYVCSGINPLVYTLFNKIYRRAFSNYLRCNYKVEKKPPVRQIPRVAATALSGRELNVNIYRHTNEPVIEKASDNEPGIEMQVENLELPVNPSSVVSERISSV
Experiment: Calcium mobilization (FLIPR) 5HT2c receptor agonist assay in HEK 293 EBNA cells
Assay type: cell-based
Description: The following procedure was utilized to evaluate representative compounds of the present invention as 5HT2c receptor agonists.
5HT was utilized as a positive control. Ligand-induced calcium release and consequent fluorescence was measured on a Fluorometric Imaging Plate Reader (FLIPR, Molecular Device, CA).
All data were analyzed by nonlinear least square curve fitting using Prism 4.0 software. Agonist stimulation of calcium-induced fluorescence in FLIPR was fitted to sigmoidal dose response using equation Y=Bottom+(Top−Bottom)/(1+10 ? ((Log EC50−X))), where X is the logarithm of concentration of compounds and Y is the fluorescent response.

[1] = HEK 293 EBNA cells expressing human 5HT2c receptor, ligand-induced calcium release, read-out: 5-HT2c EC50 (hVSV)

**Q.** Which EC50 [1] does the source give for `Cc1c(Cl)sc2c1C(C)C1CNCC21` (single isomer, unassigned) [26, Enantiomer 2] here?
**A.** Its EC50 is under 0.1 µM.

**Q.** With `Cc1sc2c(c1Br)C(C)C1CNCC21` (single isomer, unassigned) [27, Enantiomer 1] as the compound, how does the EC50 [1] read?
**A.** Its EC50 is under 1 µM.

**Q.** For `Cc1sc2c(c1Br)C(C)C1CNCC21` (single isomer, unassigned) [27, Enantiomer 2], which EC50 [1] is on record?
**A.** Its EC50 is under 0.1 µM.

**Q.** With `Brc1cc2c(s1)CC1CNCCC21` (single isomer, unassigned) [28, Enantiomer 1] as the compound, how does the EC50 [1] read?
**A.** The EC50 was under 10 µM.

**Q.** For `Brc1cc2c(s1)CC1CCNCC21` (single isomer, unassigned) [29, Enantiomer 2], which EC50 [1] is on record?
**A.** Its EC50 is under 10 µM.

**Q.** Which EC50 (read-out: 5-HT2c EC50 (hVSV), HEK 293 EBNA cells expressing human 5HT2c receptor, ligand-induced calcium release) does the source give for `Brc1cc2c(s1)C1CNCCC1C2` (single isomer, unassigned) [30, Enantiomer 2] here?
**A.** Its EC50 is over 10 µM.

**Q.** With `Cc1sc2c(c1Br)C1CNCCC1C2` (single isomer, unassigned) [33, Enantiomer 1] as the compound, how does the EC50 [1] read?
**A.** The EC50 was under 1 µM.

**Q.** `Cc1sc2c(c1Br)C1CNCCC1C2` (single isomer, unassigned) [33, Enantiomer 2] was tested. Which EC50 [1] did it give?
**A.** The EC50 was under 10 µM.

**Q.** Which EC50 [1] does the source give for `CC1c2sccc2C2CNCC12` (single isomer, unassigned) [34, Enantiomer 1] here?
**A.** The EC50 was under 10 µM.

**Q.** How did the EC50 [1] turn out when `CC1c2cc(Br)sc2C2CNCC12` (single isomer, unassigned) [36, Enantiomer 1] was run?
**A.** The EC50 was under 1 µM.

**Q.** How did the EC50 [1] turn out when `CC1c2cc(Br)sc2C2CNCC12` (single isomer, unassigned) [36, Enantiomer 2] was run?
**A.** Its EC50 is under 10 µM.

**Q.** `Brc1csc2c1CC1CNCC21` (single isomer, unassigned) [37, Enantiomer 1] was tested. Which EC50 [1] did it give?
**A.** Its EC50 is under 1 µM.

**Q.** `Brc1cc2c(s1)C1CNCC1C2` (single isomer, unassigned) [38, Enantiomer 1] was tested. Which EC50 [1] did it give?
**A.** Its EC50 is under 0.1 µM.

**Q.** For `FC(F)(F)c1sc2c(c1Br)CC1CNCC21` (single isomer, unassigned) [39, Enantiomer 2], which EC50 [1] is on record?
**A.** Its EC50 is under 0.1 µM.

**Q.** With `Cc1c(C(F)(F)F)sc2c1CC1CNCC21` (single isomer, unassigned) [40, Enantiomer 2] as the compound, how does the EC50 [1] read?
**A.** The EC50 was under 0.1 µM.

**Q.** Which EC50 [1] does the source give for `COc1c(C(F)(F)F)sc2c1CC1CNCC21` (single isomer, unassigned) [41, Enantiomer 2] here?
**A.** Its EC50 is under 0.1 µM.

**Q.** With `COc1c(Cl)sc2c1CC1CNCC21` (single isomer, unassigned) [42, Enantiomer 2] as the compound, how does the EC50 [1] read?
**A.** Its EC50 is under 10 µM.

**Q.** `CC(C)(C)C(=O)c1sc2c(c1Br)CC1CNCC21` (single isomer, unassigned) [43, Enantiomer 2] was tested. Which EC50 [1] did it give?
**A.** The EC50 was under 1 µM.

**Q.** For `c1ccc2c3c(sc2c1)C1CNCC1C3` (single isomer, unassigned) [45, Enantiomer 2], which EC50 [1] is on record?
**A.** The EC50 was under 1 µM.

**Q.** How did the EC50 [1] turn out when `Cc1c(Br)sc2c1C1CNCC1CC2` (single isomer, unassigned) [46, Enantiomer 2] was run?
**A.** Its EC50 is under 1 µM.

**Q.** `CCOC(=O)c1c(N)sc2c1CC1CNCC21` (stereo not drawn) [Example 1, 5-Amino-1,2,3,3a,7,7a-hexahydro-4-thia-2-aza-cyclopenta[α]pentalene-6-carboxylic acid ethyl ester] was tested. Which EC50 [1] did it give?
**A.** The EC50 was under 0.1 µM.

**Q.** Which EC50 [1] does the source give for `CCOC(=O)c1c(Br)sc2c1CC1CNCC21` (stereo not drawn) [Example 2, 5-Bromo-1,2,3,3a,7,7a-hexahydro-4-thia-2-aza-cyclopenta[α]pentalene-6-carboxylic acid ethyl ester] here?
**A.** The EC50 was under 0.1 µM.

**Q.** For `CCOC(=O)c1csc2c1CC1CNCC21` (stereo not drawn) [Example 3, 1,2,3,3a,7,7a-Hexahydro-4-thia-2-aza-cyclopenta[α]pentalene-6-carboxylic acid ethyl ester], which EC50 [1] is on record?
**A.** Its EC50 is under 0.1 µM.

**Q.** Which EC50 [1] does the source give for `CCOC(=O)c1c(Cl)sc2c1CC1CNCC21` (stereo not drawn) [Example 4, 5-Chloro-1,2,3,3a,7,7a-hexahydro-4-thia-2-aza-cyclopenta[α]pentalene-6-carboxylic acid ethyl ester] here?
**A.** Its EC50 is under 0.1 µM.

**Q.** For `Nc1sc2c(c1C(=O)c1cccc(C(F)(F)F)c1)CC1CNCC21` (stereo not drawn) [Example 5, (5-Amino-1,2,3,3a,7,7a-hexahydro-4-thia-2-aza cyclopenta[α]-pentalen-6-yl)-(3-trifluoromethyl-phenyl)-methanone], which EC50 [1] is on record?
**A.** The EC50 was under 10 µM.

**Q.** Which EC50 [1] does the source give for `Cc1ccc(C(=O)c2c(N)sc3c2CC2CNCC32)cc1` (stereo not drawn) [Example 6, (5-Amino-1,2,3,3a,7,7a-hexahydro-4-thia-2-aza-cyclopenta[α]-pentalen-6-yl)-p-tolyl-methanone] here?
**A.** The EC50 was under 1 µM.

**Q.** How did the EC50 [1] turn out when `Nc1sc2c(c1C(=O)c1ccc(Cl)cc1)CC1CNCC21` (stereo not drawn) [Example 7, (5-Amino-1,2,3,3a,7,7a-hexahydro-4-thia-2-aza-cyclopenta[α]-pentalen-6-yl)-(4-chloro-phenyl)-methanone] was run?
**A.** Its EC50 is under 10 µM.

**Q.** With `COC(=O)c1cc2c(s1)C1CNCC1C2` (stereo not drawn) [Example 8, 1,2,3,3a,7,7a-Hexahydro-4-thia-2-aza-cyclopenta[α]pentalene-5-carboxylic acid methyl ester] as the compound, how does the EC50 [1] read?
**A.** Its EC50 is under 10 µM.

**Q.** How did the EC50 [1] turn out when `c1cc2c(s1)C1CNCC1C2` (stereo not drawn) [Example 9, 1,2,3,3a,7,7a-Hexahydro-4-thia-2-aza-cyclopenta[α]pentalene] was run?
**A.** The EC50 was over 10 µM.

**Q.** For `N#Cc1c(Cl)sc2c1C1CNCC1C2` (stereo not drawn) [Example 10, 2-Chloro-3b,4,5,6,6a,7-hexahydro-1-thia-5-aza-cyclopenta[α]pentalene-3-carbonitrile], which EC50 [1] is on record?
**A.** Its EC50 is under 10 µM.

**Q.** For `N#Cc1c(Br)sc2c1C1CNCC1C2` (stereo not drawn) [Example 11, 2-Bromo-3b,4,5,6,6a,7-hexahydro-1-thia-5-aza-cyclopenta[α]pentalene-3-carbonitrile], which EC50 [1] is on record?
**A.** The EC50 was under 10 µM.

**Q.** Which EC50 [1] does the source give for `N#Cc1c(Cl)sc2c1CC1CNCC21` (stereo not drawn) [Example 12, 5-Chloro-1,2,3,3a,7,7a-hexahydro-4-thia-2-aza-cyclopenta[α]pentalene-6-carbonitrile] here?
**A.** The EC50 was under 0.1 µM.

**Q.** How did the EC50 [1] turn out when `N#Cc1c(Br)sc2c1CC1CNCC21` (centres unmarked) [Example 13, 5-Bromo-1,2,3,3a,7,7a-hexahydro-4-thia-2-aza-cyclopenta[ ]pentalene-6-carbonitrile] was run?
**A.** The EC50 was under 0.1 µM.

**Q.** For `N#Cc1csc2c1CC1CNCC21` (stereo not drawn) [Example 14, 1,2,3,3a,7,7a-Hexahydro-4-thia-2-aza-cyclopenta[α]pentalene-6-carbonitrile], which EC50 [1] is on record?
**A.** The EC50 was under 1 µM.

**Q.** How did the EC50 [1] turn out when `Cc1sc2c(c1Cl)CC1CNCC21` (stereo not drawn) [Example 15, 6-Chloro-5-methyl-1,2,3,3a,7,7a-hexahydro-4-thia-2-aza-cyclopenta[α]pentalene] was run?
**A.** The EC50 was under 0.1 µM.

**Q.** With `Cc1c(Cl)sc2c1CC1CNCC21` (stereo not drawn) [Example 17, 5-Chloro-6-methyl-1,2,3,3a,7,7a-hexahydro-4-thia-2-aza-cyclopenta[α]pentalene] as the compound, how does the EC50 [1] read?
**A.** Its EC50 is under 0.1 µM.

**Q.** Which EC50 [1] does the source give for `Brc1sc2c(c1Br)CC1CNCC21` (stereo not drawn) [Example 19, 5,6-Dibromo-1,2,3,3a,7,7a-hexahydro-4-thia-2-aza-cyclopenta[α]pentalene] here?
**A.** Its EC50 is under 1 µM.

**Q.** With `COc1csc2c1CC1CNCC21` (stereo not drawn) [Example 20, 6-Methoxy-1,2,3,3a,7,7a-hexahydro-4-thia-2-aza-cyclopenta[α]pentalene] as the compound, how does the EC50 [1] read?
**A.** Its EC50 is under 1 µM.

**Q.** Which EC50 [1] does the source give for `Brc1cc2c(s1)CC1CNCC21` (stereo not drawn) [Example 21, 2-Bromo-3b,4,5,6,6a,7-hexahydro-1-thia-5-aza-cyclopenta[α]pentalene] here?
**A.** Its EC50 is under 0.1 µM.

**Q.** `Brc1sc2c(c1Br)C1CNCC1C2` (stereo not drawn) [Example 22, 2,3-Dibromo-3b,4,5,6,6a,7-hexahydro-1-thia-5-aza-cyclopenta[α]pentalene] was tested. Which EC50 [1] did it give?
**A.** The EC50 was under 0.1 µM.

**Q.** With `FC(F)(F)c1csc2c1C1CNCC1C2` (stereo not drawn) [Example 23, 3-Trifluoromethyl-3b,4,5,6,6a,7-hexahydro-1-thia-5-aza-cyclopenta[α]pentalene] as the compound, how does the EC50 [1] read?
**A.** Its EC50 is under 1 µM.

**Q.** Which EC50 [1] does the source give for `CC1c2sc(Cl)cc2C2CNCC12` (stereo not drawn) [Example 24, 2-Chloro-7-methyl-3b,4,5,6,6a,7-hexahydro-1-thia-5-aza-cyclopenta[α]pentalene] here?
**A.** The EC50 was under 1 µM.

**Q.** For `CC1c2sc(I)cc2C2CNCC12` (stereo not drawn) [Example 25, 2-Iodo-7-methyl-3b,4,5,6,6a,7-hexahydro-1-thia-5-aza-cyclopenta[α]pentalene], which EC50 [1] is on record?
**A.** Its EC50 is under 1 µM.

**Q.** `Brc1cc2c(s1)C1CCNCC1C2` (stereo not drawn) [Example 31, 2-Bromo-4,5,6,7,7a,8-hexahydro-3bH-3-thia-6-aza-cyclopenta[α]indene] was tested. Which EC50 [1] did it give?
**A.** Its EC50 is under 1 µM.
